Damage in maize and pest or weed control data for 18 molecules are collected here from patent US9169219B2, “Herbicidally active 4-nitro-substituted N-(tetrazol-5-yl)-, N-(triazol-5-yl)-, and N-(1,3,4-0XADIAZOL-2-yl)aryl carboxylic acid amides” (BAYER INTELLECTUAL PROPERTY GMBH, priority 2012, dated 2015).

What all share (format): in vivo
One data set concerns maize. Description: Pre-emergence test, damage to crop plants. The settings on record: 320 g/ha, visual assessment after 3 weeks.
Another data set relates to Abutilon theophrasti. Description: Post-emergence herbicidal action against weed plants. The settings on record: 504 h, one-leaf stage, visual assessment after about 3 weeks vs untreated controls (100% = plants have died). Here is the method: (§1) 2. Post-emergence Herbicidal Action Against Weed Plants Seeds of monocotyledonous and dicotyledonous weed and crop plants are placed in sandy loam in wood-fiber pots, covered with soil and cultivated in a greenhouse under good growth conditions. 2 to 3 weeks after sowing, the test plants are treated at the one-leaf stage. The inventive compounds formulated in the form of wettable powders (WP) or as emulsion concentrates (EC) are then sprayed onto the green parts of the plants as an aqueous suspension or emulsion at a water application rate of 600 to 800 I/ha (converted) with addition of 0.2% wetting agent. After the test plants have been left to stand in the greenhouse under optimal growth conditions for about 3 weeks, the action of the formulations is assessed visually in comparison to untreated controls (herbicidal action in percent (%): 100% activity=the plants have died, 0% activity=like control plants).

The next data set deals with Stellaria media. The data set is described as above. As to conditions: 504 h, one-leaf stage, visual assessment after about 3 weeks vs untreated controls (100% = plants have died). Here is the method:
as §1

On to `Cn1nnnc1NC(=O)c1ccc([N+](=O)[O-])c(OCC2OCCO2)c1Cl` [1-78], for which the damage in maize result with maize is listed as “no damage whatsoever”. Also, the pest or weed control at 80 g/ha in the data set on Abutilon theophrasti and in the data set with Stellaria media was at least 80% throughout.

In the case of `COCCCOc1c([N+](=O)[O-])ccc(C(=O)Nc2nnnn2C)c1Cl` [1-62], the damage in maize entry in the data set on maize was “no damage whatsoever”. Consider `CCn1nnnc1NC(=O)c1ccc([N+](=O)[O-])c(OC)c1Cl` [2-44], for which the pest or weed control at 80 g/ha with Abutilon theophrasti and in the data set on Stellaria media was at least 80% each time.

For the molecule `Cn1nnnc1NC(=O)c1ccc([N+](=O)[O-])c(OCC2COCCO2)c1Cl` (stereo not shown) [1-77], in the data set with maize, the damage in maize result is recorded as “no damage whatsoever”. Also, the pest or weed control at 80 g/ha in the data set with Abutilon theophrasti and in the data set with Stellaria media was at least 80% each time. Turning to `COc1c([N+](=O)[O-])ccc(C(=O)Nc2nnnn2C)c1Cl` [1-44], the pest or weed control at 80 g/ha with Abutilon theophrasti and in the data set on Stellaria media was at least 80% each time. Regarding `COc1c([N+](=O)[O-])ccc(C(=O)Nc2nnnn2C)c1Br` [1-1, 2-bromo-3-methoxy-N-(1-methyl-1H-tetrazol-5-yl)-4-nitrobenzamide], the pest or weed control at 80 g/ha in the data set with Abutilon theophrasti and in the data set with Stellaria media was at least 80% in each case. Consider `CCn1nnnc1NC(=O)c1ccc([N+](=O)[O-])c(OCC2COCCO2)c1C` (stereo not shown) [2-120], for which the pest or weed control at 80 g/ha with Abutilon theophrasti and in the data set with Stellaria media was at least 80% throughout. As for `CCn1nnnc1NC(=O)c1ccc([N+](=O)[O-])c(OCCOC)c1C` [2-104], the damage in maize result in the data set on maize is listed as “no damage whatsoever”.

Consider `Cn1nnnc1NC(=O)c1ccc([N+](=O)[O-])c(OCC2COCCO2)c1Br` (stereo not shown) [1-34], for which, in the data set on maize, the damage in maize entry was “no damage whatsoever”. Moreover, the pest or weed control at 80 g/ha with Abutilon theophrasti and in the data set on Stellaria media was at least 80% in each case.

Take `CCOCCOc1c([N+](=O)[O-])ccc(C(=O)Nc2nnnn2C)c1Br` [1-20]: the damage in maize result in the data set on maize is given as “no damage whatsoever”. Consider `CCn1nnnc1NC(=O)c1ccc([N+](=O)[O-])c(OCC2COCCO2)c1Br` (stereo not shown) [2-34], for which the pest or weed control at 80 g/ha with Abutilon theophrasti and in the data set on Stellaria media was at least 80% throughout.

As to `CCn1nnnc1NC(=O)c1ccc([N+](=O)[O-])c(OCC(=O)N(C)C)c1C` [2-123], in the data set on maize, the damage in maize result is reported as “no damage whatsoever”. Regarding `CCn1nnnc1NC(=O)c1ccc([N+](=O)[O-])c(OCCCOC)c1Br` [2-19], in the data set with maize, the damage in maize result is “no damage whatsoever”. With `CCn1nnnc1NC(=O)c1ccc([N+](=O)[O-])c(OC)c1Br` [2-1], the pest or weed control at 80 g/ha with Abutilon theophrasti and in the data set on Stellaria media was at least 80% in each case. Consider `COCCOc1c([N+](=O)[O-])ccc(C(=O)Nc2nnnn2C)c1Cl` [1-61], for which, in the data set with maize, the damage in maize entry is given as “no damage whatsoever”.

As for `CCn1nnnc1NC(=O)c1ccc([N+](=O)[O-])c(OCCCOC)c1Cl` [2-62], the damage in maize result with maize is recorded as “no damage whatsoever”. Same read-out and setting: the entry for `CCn1nnnc1NC(=O)c1ccc([N+](=O)[O-])c(OCCOC)c1Cl` [2-61] is “no damage whatsoever”. With `Cc1c(C(=O)Nc2nnnn2C)ccc([N+](=O)[O-])c1OCC1COCCO1` (stereo not shown) [1-119], the pest or weed control at 80 g/ha in the data set on Abutilon theophrasti and in the data set with Stellaria media was at least 80% in each case.
